Test results taken from the supplement of paper PMC4862054.

Assays:
Settings in all cases: incubation time: 72 h
BT-474 [1] = assay: normalised response (% of control), CellTox Green; higher = less cell death (100 = DMSO, 0 = benzethonium chloride kill control)
Outline: (§1)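 Each entry is the normalised signal at a single concentration within a series. The series comprised 5 concentrations in 10-fold steps over a compound-specific 10,000-fold range, placed in 384-well plates into which breast cancer cell lines were seeded as 20 µl suspension and incubated 72 h. CellTox Green (485/520 nm) fluorescence and then CellTiter-Glo luminescence were read, with signals normalised per plate to 0.1 % DMSO (100) and a positive kill control (0).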

BT-549 [2] = assay: as above
Outline: as §1

CAL-120 [3] = assay: as above
Outline: as §1

CAL-148 [4] = assay: as above
Outline: as §1

CAL-51 [5] = assay: as above
Outline: as §1

CAL-85-1 [6] = assay: as above
Outline: as §1

DU-4475 [7] = assay: as above
Outline: as §1

HCC1143 [8] = assay: as above
Outline: as §1

HCC1599 [9] = assay: as above
Outline: as §1

HCC1937 [10] = assay: as above
Outline: as §1

HDQ-P1 [11] = assay: as above
Outline: as §1

Hs578T [12] = assay: as above
Outline: as §1

MCF-10A [13] = assay: as above
Outline: as §1

MDA-MB-231 [14] = assay: as above
Outline: as §1

MDA-MB-436 [15] = assay: as above
Outline: as §1

MDA-MB-453 [16] = assay: as above
Outline: as §1

MDA-MB-468 [17] = assay: as above
Outline: as §1

MFM-223 [18] = assay: as above
Outline: as §1

BT-474 [19] = assay: normalised response (% of control), CellTiter-Glo; higher = more viable cells (100 = DMSO, 0 = benzethonium chloride kill control)
Outline: as §1

BT-549 [20] = assay: as above
Outline: as §1

CAL-120 [21] = assay: as above
Outline: as §1

CAL-148 [22] = assay: as above
Outline: as §1

CAL-51 [23] = assay: as above
Outline: as §1

CAL-85-1 [24] = assay: as above
Outline: as §1

DU-4475 [25] = assay: as above
Outline: as §1

HCC1143 [26] = assay: as above
Outline: as §1

HCC1599 [27] = assay: as above
Outline: as §1

HCC1937 [28] = assay: as above
Outline: as §1

HDQ-P1 [29] = assay: as above
Outline: as §1

Hs578T [30] = assay: as above
Outline: as §1

MCF-10A [31] = assay: as above
Outline: as §1

MDA-MB-231 [32] = assay: as above
Outline: as §1

MDA-MB-436 [33] = assay: as above
Outline: as §1

MDA-MB-453 [34] = assay: as above
Outline: as §1

MDA-MB-468 [35] = assay: as above
Outline: as §1

MFM-223 [36] = assay: as above
Outline: as §1

SK-BR-3 = assay: as above
Outline: as §1

| Compound | normalised response (BT-474 [1]) [%] | normalised response (BT-549 [2]) [%] | normalised response (CAL-120 [3]) [%] | normalised response (CAL-148 [4]) [%] | normalised response (CAL-51 [5]) [%] | normalised response (CAL-85-1 [6]) [%] | normalised response (DU-4475 [7]) [%] | normalised response (HCC1143 [8]) [%] | normalised response (HCC1599 [9]) [%] | normalised response (HCC1937 [10]) [%] | normalised response (HDQ-P1 [11]) [%] | normalised response (Hs578T [12]) [%] | normalised response (MCF-10A [13]) [%] | normalised response (MDA-MB-231 [14]) [%] | normalised response (MDA-MB-436 [15]) [%] | normalised response (MDA-MB-453 [16]) [%] | normalised response (MDA-MB-468 [17]) [%] | normalised response (MFM-223 [18]) [%] | normalised response (BT-474 [19]) [%] | normalised response (BT-549 [20]) [%] | normalised response (CAL-120 [21]) [%] | normalised response (CAL-148 [22]) [%] | normalised response (CAL-51 [23]) [%] | normalised response (CAL-85-1 [24]) [%] | normalised response (DU-4475 [25]) [%] | normalised response (HCC1143 [26]) [%] | normalised response (HCC1599 [27]) [%] | normalised response (HCC1937 [28]) [%] | normalised response (HDQ-P1 [29]) [%] | normalised response (Hs578T [30]) [%] | normalised response (MCF-10A [31]) [%] | normalised response (MDA-MB-231 [32]) [%] | normalised response (MDA-MB-436 [33]) [%] | normalised response (MDA-MB-453 [34]) [%] | normalised response (MDA-MB-468 [35]) [%] | normalised response (MFM-223 [36]) [%] | normalised response (SK-BR-3) [%] |
| --- | --- | --- | --- | --- | --- | --- | --- | --- | --- | --- | --- | --- | --- | --- | --- | --- | --- | --- | --- | --- | --- | --- | --- | --- | --- | --- | --- | --- | --- | --- | --- | --- | --- | --- | --- | --- | --- |
| CC[C@H](Nc1ncnc2[nH]cnc12)c1nc2cccc(F)c2c(=O)n1-c1ccccc1 [GS-1101] (10000 nM) | 97.9 | 114 | 98.2 | 79.9 | 107 | 96.4 | 95.5 | 99.5 | 93.5 | 94.4 | 61.4 | 109 | 102 | 86.4 | 111 | 73.4 | 59.5 | 95.4 | 71.4 | 69.6 | 77.8 | 86 | 120 | 93.1 | 96.3 | 81.3 | 107 | 78.7 | 71.7 | 76.5 | 63 | 73.6 | 59.8 | 61.8 | 64.7 | 77 | 62.9 |
| C=CC(=O)N1CCC[C@@H](n2nc(-c3ccc(Oc4ccccc4)cc3)c3c(N)ncnc32)C1 [Ibrutinib] (1000 nM) | 83.8 | 92.3 | 102 | 86.6 | 87.5 | 26.8 | 97.2 | 111 | 106 | 94.5 | 74.8 | 92 | 76.5 | 115 | 93 | 46.3 | 75.1 | 100 | 106 | 110 | 100 | 101 | 85.7 | 50.2 | 118 | 102 | 111 | 94.9 | 68.3 | 106 | 42.5 | 105 | 109 | 73.6 | 80.7 | 88.4 | 24.5 |
| O=C(Cc1ccc(-c2ccc(OCCN3CCOCC3)cc2)cn1)NCc1ccccc1 [KX2-391] (10000 nM) | 79.9 | 64.9 | 84 | 84.2 | 48.7 | 45.3 | 97.6 | 110 | 67.6 | 12.5 | 8.87 | 26.2 | 50.1 | 50.1 | 51 | 99.2 | 45.4 | 28 | 52 | 45.8 | 60.8 | 54.9 | 25.6 | 56.5 | 58.9 | 56.3 | 9.36 | 69.1 | 73.8 | 18.4 | 77 | 46.6 | 26.2 | 61.2 | 28 | 34.5 | 19.9 |
| N#Cc1ccc(C(c2ccc(C#N)cc2)n2cncn2)cc1 [Letrozole] (10000 nM) | 102 | 102 | 101 | 97.9 | 116 | 94.2 | 101 | 127 | 101 | 94.5 | 107 | 66.7 | 103 | 105 | 93.9 | 98.1 | 70.7 | 100 | 91.7 | 96.3 | 98.8 | 101 | 128 | 97.8 | 98.8 | 97.7 | 85.2 | 100 | 103 | 97.7 | 106 | 91.5 | 102 | 96.8 | 97 | 99.8 | 101 |
| C[C@H]1C[C@@H]2[C@H]([C@@H](O)C[C@@]3(C)[C@H]2CC[C@]3(O)C(=O)CO)[C@@]2(C)C=CC(=O)C=C12 [Methylprednisolone] (10000 nM) | 99.9 | 111 | 102 | 93.7 | 119 | 73.1 | 103 | 121 | 86.3 | 94.8 | 111 | 126 | 99.1 | 154 | 91.9 | 101 | 151 | 93.2 | 151 | 98.4 | 77.7 | 112 | 130 | 112 | 104 | 104 | 103 | 97.5 | 89.9 | 108 | 101 | 146 | 102 | 96.7 | 106 | 99.6 | 94.5 |
| C=CCc1cccc(/C=N/NC(=O)CN2CCN(Cc3ccccc3)CC2)c1O [PAC-1] (10000 nM) | 74.2 | 2.94 | 70.5 | 61.4 | 68.6 | 63.3 | 86.9 | 101 | 91 | 96 | 113 | 116 | 99.2 | 86.4 | 103 | 93.7 | 65.4 | 103 | 38.9 | 34 | 34.8 | 26.6 | 5.5 | 21 | 9.69 | 41.4 | 33.4 | 27.7 | 61.4 | 73.5 | 77.7 | 45 | 17.8 | 26.4 | 11.6 | 43.4 | 14.9 |
| CC[C@H](C)C(=O)O[C@H]1C[C@H](O)C=C2C=C[C@H](C)[C@H](CC[C@@H](O)C[C@@H](O)CC(=O)O)[C@H]21 [Pravastatin] (10000 nM) | 99.4 | 90.3 | 101 | 91.6 | 16.5 | 106 | 93.2 | 101 | 89.1 | 96.1 | 97.2 | 115 | 26.1 | 54.3 | -63.1 | 94.4 | 21.1 | 63.1 | 50.8 | 56.4 | 58 | 39.7 | 36 | 44.8 | 41.6 | 42.3 | 29.5 | 37 | 65.7 | 70.3 | 67.1 | 61 | 21.6 | 55.3 | 34.5 | 49.5 | 21.6 |
| Cc1cnc(NC(=O)Nc2cc(Br)c(C)cc2OC[C@@H]2CNCCO2)cn1 [Rabusertib] (1000 nM) | 103 | 109 | 106 | 58.9 | 111 | 59.3 | 102 | 129 | 95.7 | 114 | 110 | 103 | 109 | 100 | 104 | 104 | 137 | 82.7 | 100 | 91.5 | 102 | 112 | 110 | 87.8 | 106 | 99.5 | 29.4 | 80.9 | 100 | 71.3 | 112 | 92.1 | 116 | 77.2 | 102 | 98.2 | 48.6 |
